SMILES strings stand for the structures.

WT EZH2 (EZH2 4 protein complex: EZH2, EED, SUZ12, RbAp48), sequence (Q15910 whole entry): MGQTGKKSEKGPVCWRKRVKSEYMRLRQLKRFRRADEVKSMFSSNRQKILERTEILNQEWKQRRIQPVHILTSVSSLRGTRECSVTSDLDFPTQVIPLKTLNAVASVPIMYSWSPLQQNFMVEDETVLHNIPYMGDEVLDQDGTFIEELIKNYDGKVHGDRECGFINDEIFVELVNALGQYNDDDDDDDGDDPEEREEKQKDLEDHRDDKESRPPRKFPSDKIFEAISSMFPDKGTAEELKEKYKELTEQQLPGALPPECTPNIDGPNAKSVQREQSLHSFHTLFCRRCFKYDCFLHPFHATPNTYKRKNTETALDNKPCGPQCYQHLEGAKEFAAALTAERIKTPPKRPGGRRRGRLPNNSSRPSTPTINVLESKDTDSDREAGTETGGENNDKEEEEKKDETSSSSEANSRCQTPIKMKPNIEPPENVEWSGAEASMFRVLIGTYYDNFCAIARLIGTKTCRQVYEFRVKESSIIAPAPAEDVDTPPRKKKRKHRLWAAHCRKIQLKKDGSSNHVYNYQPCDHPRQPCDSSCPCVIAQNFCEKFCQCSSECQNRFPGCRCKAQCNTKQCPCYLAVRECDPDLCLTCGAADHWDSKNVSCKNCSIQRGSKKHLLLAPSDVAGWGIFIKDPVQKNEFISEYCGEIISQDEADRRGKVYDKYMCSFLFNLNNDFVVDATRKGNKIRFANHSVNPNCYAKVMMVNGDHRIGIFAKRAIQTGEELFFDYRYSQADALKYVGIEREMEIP
WT EZH2 (EZH2 4 protein complex: EZH2, EED, SUZ12, RbAp48), sequence (O75530 whole entry partner): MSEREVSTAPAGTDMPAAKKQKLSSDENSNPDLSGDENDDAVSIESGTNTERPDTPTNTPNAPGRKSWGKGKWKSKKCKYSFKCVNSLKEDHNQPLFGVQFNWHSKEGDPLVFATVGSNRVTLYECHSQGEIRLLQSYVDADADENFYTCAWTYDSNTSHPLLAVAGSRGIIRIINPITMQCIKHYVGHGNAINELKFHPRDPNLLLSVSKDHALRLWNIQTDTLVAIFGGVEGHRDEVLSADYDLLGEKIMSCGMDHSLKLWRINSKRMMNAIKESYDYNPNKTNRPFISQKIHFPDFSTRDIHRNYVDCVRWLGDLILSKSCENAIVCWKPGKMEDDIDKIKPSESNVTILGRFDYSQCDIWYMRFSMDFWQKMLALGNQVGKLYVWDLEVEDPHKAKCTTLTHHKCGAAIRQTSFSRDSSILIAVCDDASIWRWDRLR
WT EZH2 (EZH2 4 protein complex: EZH2, EED, SUZ12, RbAp48), sequence (Q15022 whole entry partner): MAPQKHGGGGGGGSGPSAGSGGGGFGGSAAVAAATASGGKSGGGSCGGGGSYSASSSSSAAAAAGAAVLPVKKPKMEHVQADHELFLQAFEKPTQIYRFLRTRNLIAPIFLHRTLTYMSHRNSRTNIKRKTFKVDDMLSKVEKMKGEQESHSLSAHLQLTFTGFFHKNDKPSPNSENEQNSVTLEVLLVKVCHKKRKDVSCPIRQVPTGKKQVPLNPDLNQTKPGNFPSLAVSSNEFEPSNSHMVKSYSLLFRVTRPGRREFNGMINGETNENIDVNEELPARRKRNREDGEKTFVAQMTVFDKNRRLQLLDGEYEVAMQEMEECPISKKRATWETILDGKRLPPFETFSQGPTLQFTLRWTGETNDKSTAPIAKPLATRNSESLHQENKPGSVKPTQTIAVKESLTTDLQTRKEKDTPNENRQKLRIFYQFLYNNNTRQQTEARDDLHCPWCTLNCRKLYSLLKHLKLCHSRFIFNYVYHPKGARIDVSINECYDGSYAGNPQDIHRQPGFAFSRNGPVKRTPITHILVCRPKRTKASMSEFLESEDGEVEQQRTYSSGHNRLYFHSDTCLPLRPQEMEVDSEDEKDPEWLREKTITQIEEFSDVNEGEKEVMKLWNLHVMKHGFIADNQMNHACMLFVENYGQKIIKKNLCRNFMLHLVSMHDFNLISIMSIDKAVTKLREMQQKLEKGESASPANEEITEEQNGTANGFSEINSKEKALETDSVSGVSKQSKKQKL
WT EZH2 (EZH2 4 protein complex: EZH2, EED, SUZ12, RbAp48), sequence (Q09028 whole entry partner): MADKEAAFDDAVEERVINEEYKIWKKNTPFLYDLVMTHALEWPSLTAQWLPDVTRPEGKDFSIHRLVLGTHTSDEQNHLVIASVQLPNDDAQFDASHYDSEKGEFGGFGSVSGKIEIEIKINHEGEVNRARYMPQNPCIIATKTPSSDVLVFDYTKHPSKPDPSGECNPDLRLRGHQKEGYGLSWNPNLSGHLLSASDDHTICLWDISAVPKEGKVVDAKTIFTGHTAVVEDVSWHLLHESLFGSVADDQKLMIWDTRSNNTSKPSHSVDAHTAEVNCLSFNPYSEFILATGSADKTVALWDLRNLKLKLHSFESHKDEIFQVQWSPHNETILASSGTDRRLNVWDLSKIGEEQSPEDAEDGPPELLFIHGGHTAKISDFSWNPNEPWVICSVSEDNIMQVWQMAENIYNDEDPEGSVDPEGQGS

The target in this test is WT EZH2 (EZH2 4 protein complex: EZH2, EED, SUZ12, RbAp48) (Homo sapiens, UniProt O75530+Q09028+Q15022+Q15910). Description: WT EZH2 nucleosome assay. Type of test: biochemical. Conditions: nucleosome assay, 5 nM EZH2 4-protein complex, 1.5 μM SAM; read-out: WT EZH2 IC50. How it is done: Nucleosome Assay Protocol:
A. Compound preparation • 1. Prepare 10 mM stock solutions in 100% DMSO from solid material • 2. Serial dilute 10 mM compound stocks either 2 or 3-fold in 100% DMSO to generate compounds for 11 point dose response
B. Reagent preparation • 1. Prepare 1× assay buffer containing 100 mM Tris pH 8.5, 4 mM DTT and 0.01% Tween-20 • 2. Dilute purified HeLA oligonucleosomes and recombinant histone H1 (New England Biolabs) in assay buffer to 1.67×. • 3. Dilute EZH2 4 protein complex (EZH2, EED, SUZ12, RbAp48) to 3.5× in assay buffer • 4. Prepare 10×^3H SAM solution in assay buffer using 0.94 μCi/well of radioactive SAM (Perkin Elmer) and sufficient non-labeled SAM (Sigma) for 1.5 μM final concentration. • 5. Dilute TCA to 20% in DI water
C. Enzyme reaction • 1. Final reaction conditions are 5 nM EZH2 4-protein complex, 1.5 μM SAM, 25 μg/mL oligonucleosomes, 50 nM rH1 in a 50 μl reaction volume. • 2. Add 1 μl of diluted compound to the assay plate (96-well V-bottom polypropylene plates) or 1 μl of DMSO for control wells. • 3. Add 30 μl of nucleosomes to the assay plate • 4. Add 14 μl of EZH2 4 protein complex to the assay plate • 5. Add 5 μl of ^3H SAM to start the reaction. • 6. Stop the reaction after 60 minutes with the addition of 100 μl of 20% TCA • 7. Transfer 150 μl of quenched reaction into a prepared filterplate (Millipore #MSIPN4B10) • 8. Apply vacuum to the filterplate to filter the reaction mix through the membrane. • 9. Wash the filterplate with 8×200 μl of PBS, blot dry and dry in an oven for 30 minutes • 10. Add 50 μl of microscint-20 scintillation fluid (Perkin Elmer) to each well, wait 30 minutes and count on a liquid scintillation counter.
D. Data analysis • 1. IC50 values were determined by fitting the data to a 4-parameter IC50 equation using proprietary curve fitting software.
Wild type (WT) EZH2% Effect at 20 μM and IC50 values (μM) generated in WT EZH2 or EZH2PRC2 mutant Y641N nucleosome assays are provided in Table 3 below. A blank entry in the table indicates the data was not generated in that assay.
As usually defined, the IC50 is the midpoint of a concentration-inhibition curve. As to `Cc1cc(C)c(CNC(=O)c2nc(OCCN3CC(F)(F)C3)nc(-c3ccnn3C)c2C)c(=O)[nH]1` [Example 117, 2-[2-(3,3-difluoroazetidin-1-yl)ethoxy]-N-[(4,6-dimethyl-2-oxo-1,2-dihydropyridin-3-yl)methyl]-5-methyl-6-(1-methyl-1H-pyrazol-5-yl)pyrimidine-4-carboxamide], the IC50 was determined as 31.1 µM.

For the compound `Cc1cc(C)c(CNC(=O)c2ncnc(N3CCC[C@@H]3C(N)=O)c2C)c(=O)[nH]1` [Example 145, 6-[(2R)-2-carbamoyl-pyrrolidin-1-yl]-N-[(4,6-dimethyl-2-oxo-1,2-dihydropyridin-3-yl)methyl]-5-methylpyrimi-dine-4-carboxamide], the IC50 was greater than 200 µM.

As for `Cc1cc(C)c(CNC(=O)c2nc(-c3cnc(N(C)C)nc3)nc(-c3ccnn3C)c2C)c(=O)[nH]1` [Example 51, 2′-(dimethylamino)-N-[(4,6-dimethyl-2-oxo-1,2-dihydropyridin-3-yl)methyl]-5-methyl-6-(1-methyl-1H-pyrazol-5-yl)-2 ,5′-bipyrimidine-4-carboxamide], the IC50 turned out to be 2.11 µM.

`Cc1cc(C)c(CNC(=O)c2ncnc(N3CCCC3C(C)C)c2C)c(=O)[nH]1` (stereo not shown) [Example 112, N-[(4,6-dimethyl-2-oxo-1,2-dihydropyridin-3-yl)methyl]-6-(2-isopropylpyrroli-din-1-yl)-5-methylpyrimidine-4-carboxamide]: the IC50 came out at 25.3 µM.

Regarding `Cc1cc(C(=O)NCc2c(C)cc(C)[nH]c2=O)c(C#N)c(OC(C)C)n1` [Example 99, 3-cyano-N-[(4,6-dimethyl-2-oxo-1,2-dihydropyridin-3-yl)methyl]-2-isopropoxy-6-methyliso-nicotinamide], the IC50 came to 17.6 µM.

Take `Cc1cc(C)c(CNC(=O)c2cc(Cl)cc(-n3ncnc3C)c2C)c(=O)[nH]1` [Example 49, 5-chloro-N-[(4,6-dimethyl-2-oxo-1,2-dihydropyridin-3-yl)methyl]-2-methyl-3-(5-methyl-1H-1,2,4-triazol-1-yl)benzamide]: the IC50 is 1.95 µM.

In the case of `CC(C)Oc1cccc(C(=O)NCc2ccc[nH]c2=O)c1Cl` [Example 139, 2-chloro-3-isopropoxy-N-[(2-oxo-1,2-dihydropyridin-3-yl)methyl]benz-amide], the IC50 is greater than 200 µM.

As to `Cc1cc(C)c(CNC(=O)c2cc(-c3ccc(N)nc3)cc(-c3ccnn3C)c2C)c(=O)[nH]1` [Example 19, 5-(6-aminopyridin-3-yl)-N-[(4,6-dimethyl-2-oxo-1,2-dihydropyridin-3-yl)methyl]-2-methyl-3-(1-methyl-1H-pyrazol-5-yl)benzamide], the IC50 was found to be 0.041 µM.

In the case of `CC(=O)N[C@H]1CCN(c2ncnc(C(=O)NCc3c(C)cc(C)[nH]c3=O)c2C)C1` [Example 143, 6-[(3S)-3-azetamido-pyrrolidin-1-yl]-N-[(4,6-dimethyl-2-oxo-1,2-dihydropyridin-3-yl)methyl]-5-methylpyrimidine-4-carboxamide], the concentration for half-maximal inhibition (IC50) is greater than 200 µM.

On to `Cc1cc(C)c(CNC(=O)c2nc(-c3cncnc3)nc(-c3ccnn3C)c2C)c(=O)[nH]1` [Example 80, N-[(4,6-dimethyl-2-oxo-1,2-dihydropyridin-3-yl)methyl]-5-methyl-6-(1-methyl-1H pyrazol-5-yl)-2,5′-bipyrimidine-4-carboxamide], for which the IC50 is 7.53 µM.

Turning to `COc1nc(C(=O)NCc2c(C)cc(C)[nH]c2=O)c(C)c(-c2ccnn2C)n1` [Example 108, N-[(4,6-dimethyl-2-oxo-1,2-dihydropyridin-3-yl)methyl]-2-methoxy-5-methyl-6-(1-methyl-1H-pyrazol-5-yl)pyrimidine-4-carboxamide], the IC50 is 22.2 µM.

Regarding `Cc1cc(C)c(CNC(=O)c2nc(N3CCC(N)CC3)nc(-c3ccnn3C)c2C)c(=O)[nH]1` [Example 43, 2-(4-aminopiperidin-1-yl)-N-[(4,6-dimethyl-2-oxo-1,2-dihydropyridin-3-yl)methyl]-5-methyl-6-(1-methyl-1H-pyrazol-5-yl)pyrimidine-4-carboxamide], the IC50 was found to be 1.34 µM.

Consider `Cc1cc(C)c(CNC(=O)c2cc(Cl)cc(-n3cnnc3C)c2C)c(=O)[nH]1` [Example 78, 5-chloro-N-[(4,6-dimethyl-2-oxo-1,2-dihydropyridin-3-yl)methyl]-2-methyl-3-(3-methyl-4H-1,2,4-triazol-4-yl)benzamide], for which the IC50 is 7.31 µM.

Take `Cc1cc(C)c(CNC(=O)c2nc(-c3cnn(C)c3)nc(N3CCOC[C@@H]3C)c2C(F)(F)F)c(=O)[nH]1` [Example 104, N-[(4,6-dimethyl-2-oxo-1,2-dihydropyridin-3-yl)methyl]-6-[(3S)-3-methylmorpho-lin-4-yl]-2-(1-methyl-1H-pyrazol-4-yl)-5-(trifluoromethyl) pyrimidine-4-carboxamide]: the IC50 was found to be 19.4 µM.

Regarding `Cc1cc(C)c(CNC(=O)c2ncnc(N3CC[C@H](C)C3)c2C)c(=O)[nH]1` [Example 107, N-[(4,6-dimethyl-2-oxo-1,2-dihydropyridin-3-yl)methyl]-5-methyl-6-[(3S)-3-methylpyrrolidin-1-yl]pyrimidine-4-carboxamide], the IC50 was determined as 21.8 µM.

For the compound `COc1ccc(OC)c(C(=O)NCc2c(C)cc(C)[nH]c2=O)c1OC` [Example 140, N-[(4,6-dimethyl-2-oxo-1,2-dihydropyridin-3-yl)methyl]-2,3,6-trimethoxy-benzamide], the IC50 was greater than 200 µM.

On to `Cc1cc(C)c(CNC(=O)c2cc(-c3cncnc3)cc(-c3ccnn3C)c2C)c(=O)[nH]1` [Example 17, N-[(4,6-dimethyl-2-oxo-1,2-dihydropyridin-3-yl)methyl]-2-methyl-3-(1-methyl-1H-pyrazol-5-yl)-5-pyrimidin-5-ylbenzamide], for which the IC50 came out at 0.16 µM.

On to `Cc1cc(C)c(CNC(=O)c2nc(N3CCCC3)nc(-c3ccnn3C)c2C)c(=O)[nH]1` [Example 92, N-[(4,6-dimethyl-2-oxo-1,2-dihydropyridin-3-yl)methyl]-5-methyl-6-(1-methyl-1H-pyrazol-5-yl)-2-pyrrolidin-1-ylpyrimidine-4-carboxamide], for which the IC50 was found to be 12.8 µM.

`CNc1ncc(-c2nc(C(=O)NCc3c(C)cc(C)[nH]c3=O)c(C)c(-c3ccnn3C)n2)cn1` [Example 47, N-[(4,6-dimethyl-2-oxo-1,2-dihydropyridin-3-yl)methyl]-5-methyl-2′-(methylamino)-6-(1-methyl-1H-pyrazol-5-yl)-2,5′-bipyrimidine-4-carboxamide]: the IC50 stood at 1.7 µM.

In the case of `Cc1cc(C)c(CNC(=O)c2nc(O[C@@H]3CCOC3)nc(-c3ccnn3C)c2C)c(=O)[nH]1` [Example 93, N-[(4,6-dimethyl-2-oxo-1,2-dihydropyridin-3-yl)methyl]-5-methyl-6-(1-methyl-1H-pyrazol-5-yl)-2-[(3R)-tetrahydro-furan-3-yloxy]pyrimi-dine-4-carboxamide], the IC50 was found to be 14.5 µM.

`Cc1cc(C)c(CNC(=O)c2ncnc(-c3ccnn3C)c2Cl)c(=O)[nH]1` [Example 115, 5-chloro-N-[(4,6-dimethyl-2-oxo-1,2-dihydropyridin-3-yl)methyl]-6-(1-methyl-1H-pyrazol-5-yl)pyrimidine-4-carboxamide]: the IC50 came to 28.7 µM.

As to `Cc1cc(C)c(CNC(=O)c2cc(-c3cnc(N4CCOCC4)nc3)cc(-c3c(C)cnn3C)c2C)c(=O)[nH]1` [Example 21, N-[(4,6-dimethyl-2-oxo-1,2-dihydropyridin-3-yl)methyl]-3-(1,4-dimethyl-1H-pyrazol-5-yl)-2-methyl-5-(2-morpholin-4-ylpyrimidin-5-yl)benzamide], the IC50 turned out to be 0.019 µM.

Regarding `Cc1cc(C)c(CNC(=O)c2nc(N(C)C)nc(N3CCC[C@@H]3C)c2C)c(=O)[nH]1` [Example 96, 2-(dimethylamino)-N-[(4,6-dimethyl-2-oxo-1,2-dihydropyridin-3-yl)methyl]-5-methyl-6-[(2S)-2-methyplyrrolidin-1-yl]pyrimidine-4-carboxamide], the concentration for half-maximal inhibition (IC50) is 16.5 µM.

For `Cc1cc(C)c(CNC(=O)c2cc(C3=CCOCC3)cc(C3=CCOCC3)c2C)c(=O)[nH]1` [Example 42, 3,5-di-3,6-dihydro-2H-pyran-4-yl-N-[(4,6-dimethyl-2-oxo-1,2-dihydropyridin-3-yl)methyl]-2-methylbenz-amide], the half-maximal inhibitory concentration (IC50) was 1.12 µM.

Turning to `CCc1cnn(C)c1-c1cccc(C(=O)NCc2c(C)cc(C)[nH]c2=O)c1C` [Example 39, N-[(4,6-dimethyl-2-oxo-1,2-dihydropyridin-3-yl)methyl]-3-(4-ethyl-1-methyl-1H-pyrazol-5-yl)-2-methylbenz-amide], the IC50 was 0.87 µM.

(Values after patent US20170152239A1, “BENZAMIDE AND HETEROBENZAMIDE COMPOUNDS” (PFIZER INC., priority 2012, published 2017).)
